Laboratory results taken from PMC7933130 (Nature, 2021).

Target: NaCT (Homo sapiens, UniProt Q86YT5)
Test: cryo-EM structure at […] Å
Assay type: binding

Sequence of NaCT (Q86YT5 whole entry): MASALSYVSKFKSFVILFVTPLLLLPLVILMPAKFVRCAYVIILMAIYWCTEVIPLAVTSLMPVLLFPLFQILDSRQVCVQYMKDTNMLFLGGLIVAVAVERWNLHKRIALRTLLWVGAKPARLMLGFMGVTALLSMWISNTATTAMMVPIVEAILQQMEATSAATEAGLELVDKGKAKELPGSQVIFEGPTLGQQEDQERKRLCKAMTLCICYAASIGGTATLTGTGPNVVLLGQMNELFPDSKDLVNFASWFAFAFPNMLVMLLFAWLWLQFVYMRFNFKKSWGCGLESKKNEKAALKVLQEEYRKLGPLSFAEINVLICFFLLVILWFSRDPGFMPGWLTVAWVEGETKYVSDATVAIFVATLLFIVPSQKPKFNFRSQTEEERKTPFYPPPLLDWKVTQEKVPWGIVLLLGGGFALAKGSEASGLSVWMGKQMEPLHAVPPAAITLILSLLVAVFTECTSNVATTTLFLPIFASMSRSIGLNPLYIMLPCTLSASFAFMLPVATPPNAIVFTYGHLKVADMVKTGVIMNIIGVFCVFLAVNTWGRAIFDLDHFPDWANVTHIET

O=C(O)CC(O)(CC(=O)O)C(=O)O [citrate]
Kd: 148 ± 28 µM
